# Results: doi:10.1101/2020.06.11.145995v1 (biorxiv, 2020)
# Like-named read-outs stand apart in the source and are kept apart here.
# Experiments:
# Experiment in all cases: biochemical
# [1] = target: AKT2 (Homo sapiens, UniProt P31751)
# [2] = target: AMPK-alpha1 (Homo sapiens, UniProt Q13131)
# [3] = target: AURKA (Homo sapiens, UniProt O14965)
# [4] = target: AURKC (Homo sapiens, UniProt Q9UQB9)
# [5] = target: CDC2L1 (Homo sapiens, UniProt P21127)
# [6] = target: CDKL5 (Homo sapiens, UniProt O76039)
# [7] = target: CIT (Homo sapiens, UniProt O14578)
# CIT, sequence (O14578 whole entry): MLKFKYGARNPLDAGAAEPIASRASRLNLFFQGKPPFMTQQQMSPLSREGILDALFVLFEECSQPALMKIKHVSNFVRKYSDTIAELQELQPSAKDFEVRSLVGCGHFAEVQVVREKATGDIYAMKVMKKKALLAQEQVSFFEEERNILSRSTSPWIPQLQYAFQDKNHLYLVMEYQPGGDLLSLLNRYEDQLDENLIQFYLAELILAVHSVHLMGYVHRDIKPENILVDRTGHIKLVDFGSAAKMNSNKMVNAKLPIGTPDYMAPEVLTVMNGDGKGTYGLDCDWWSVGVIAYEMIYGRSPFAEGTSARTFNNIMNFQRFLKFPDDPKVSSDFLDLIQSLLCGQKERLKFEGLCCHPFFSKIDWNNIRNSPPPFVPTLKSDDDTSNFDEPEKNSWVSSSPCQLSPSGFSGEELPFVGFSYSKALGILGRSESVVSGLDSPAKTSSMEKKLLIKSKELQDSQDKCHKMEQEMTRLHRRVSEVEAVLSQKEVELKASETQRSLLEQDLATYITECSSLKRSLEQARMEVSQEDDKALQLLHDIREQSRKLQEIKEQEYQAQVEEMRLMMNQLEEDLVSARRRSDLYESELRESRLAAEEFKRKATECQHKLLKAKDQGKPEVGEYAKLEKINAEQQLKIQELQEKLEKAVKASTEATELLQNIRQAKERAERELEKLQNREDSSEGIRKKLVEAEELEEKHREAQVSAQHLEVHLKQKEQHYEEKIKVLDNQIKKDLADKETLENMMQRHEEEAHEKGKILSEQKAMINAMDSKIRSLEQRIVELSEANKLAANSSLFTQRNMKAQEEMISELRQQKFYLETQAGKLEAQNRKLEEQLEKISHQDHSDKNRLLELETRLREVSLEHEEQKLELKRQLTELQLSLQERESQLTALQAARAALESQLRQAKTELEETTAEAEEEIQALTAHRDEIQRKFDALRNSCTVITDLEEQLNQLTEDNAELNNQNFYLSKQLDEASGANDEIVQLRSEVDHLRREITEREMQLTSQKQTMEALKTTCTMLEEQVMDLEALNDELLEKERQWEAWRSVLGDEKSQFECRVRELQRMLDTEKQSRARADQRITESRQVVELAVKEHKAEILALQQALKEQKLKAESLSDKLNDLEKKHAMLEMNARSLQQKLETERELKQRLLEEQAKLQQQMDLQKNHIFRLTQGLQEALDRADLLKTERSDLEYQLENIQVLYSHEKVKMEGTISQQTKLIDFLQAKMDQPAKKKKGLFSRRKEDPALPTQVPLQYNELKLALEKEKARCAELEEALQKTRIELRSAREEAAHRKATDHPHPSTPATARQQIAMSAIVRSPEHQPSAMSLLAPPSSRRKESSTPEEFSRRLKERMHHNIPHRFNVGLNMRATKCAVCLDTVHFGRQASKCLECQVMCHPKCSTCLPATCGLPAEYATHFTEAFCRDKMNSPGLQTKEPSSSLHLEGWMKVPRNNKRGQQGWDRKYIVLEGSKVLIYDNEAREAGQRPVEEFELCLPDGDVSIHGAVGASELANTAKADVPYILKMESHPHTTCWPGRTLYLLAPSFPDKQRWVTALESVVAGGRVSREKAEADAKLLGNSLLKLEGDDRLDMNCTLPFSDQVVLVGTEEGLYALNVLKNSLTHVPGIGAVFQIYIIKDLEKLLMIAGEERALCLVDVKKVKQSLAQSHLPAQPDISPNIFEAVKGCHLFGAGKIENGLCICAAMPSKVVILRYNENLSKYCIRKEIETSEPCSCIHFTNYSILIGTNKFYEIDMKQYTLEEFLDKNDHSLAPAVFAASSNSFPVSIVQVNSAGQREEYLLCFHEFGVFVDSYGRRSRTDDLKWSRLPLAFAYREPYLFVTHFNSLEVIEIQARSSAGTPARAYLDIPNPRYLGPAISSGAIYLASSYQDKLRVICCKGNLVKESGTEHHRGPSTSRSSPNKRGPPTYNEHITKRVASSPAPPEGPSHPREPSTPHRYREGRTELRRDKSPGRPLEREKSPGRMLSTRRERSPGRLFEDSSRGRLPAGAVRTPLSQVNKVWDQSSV
# [8] = target: CSNK1A1 (Homo sapiens, UniProt P48729)
# [9] = target: CSNK1E (Homo sapiens, UniProt P49674)
# [10] = target: CSNK2A1 (Homo sapiens, UniProt P68400)
# [11] = target: DAPK3 (Homo sapiens, UniProt O43293)
# [12] = target: DMPK (Homo sapiens, UniProt Q09013)
# [13] = target: DYRK2 (Homo sapiens, UniProt Q92630)
# [14] = target: EGFR(G719S) (Homo sapiens, UniProt P00533, G719S)
# [15] = target: ERN1 (Homo sapiens, UniProt O75460)
# [16] = target: FES (Homo sapiens, UniProt P07332)
# [17] = target: HCK (Homo sapiens, UniProt P08631)
# [18] = target: IGF1R (Homo sapiens, UniProt P08069)
# [19] = target: IKK-alpha (Homo sapiens, UniProt O15111)
# IKK-alpha, sequence (O15111 whole entry): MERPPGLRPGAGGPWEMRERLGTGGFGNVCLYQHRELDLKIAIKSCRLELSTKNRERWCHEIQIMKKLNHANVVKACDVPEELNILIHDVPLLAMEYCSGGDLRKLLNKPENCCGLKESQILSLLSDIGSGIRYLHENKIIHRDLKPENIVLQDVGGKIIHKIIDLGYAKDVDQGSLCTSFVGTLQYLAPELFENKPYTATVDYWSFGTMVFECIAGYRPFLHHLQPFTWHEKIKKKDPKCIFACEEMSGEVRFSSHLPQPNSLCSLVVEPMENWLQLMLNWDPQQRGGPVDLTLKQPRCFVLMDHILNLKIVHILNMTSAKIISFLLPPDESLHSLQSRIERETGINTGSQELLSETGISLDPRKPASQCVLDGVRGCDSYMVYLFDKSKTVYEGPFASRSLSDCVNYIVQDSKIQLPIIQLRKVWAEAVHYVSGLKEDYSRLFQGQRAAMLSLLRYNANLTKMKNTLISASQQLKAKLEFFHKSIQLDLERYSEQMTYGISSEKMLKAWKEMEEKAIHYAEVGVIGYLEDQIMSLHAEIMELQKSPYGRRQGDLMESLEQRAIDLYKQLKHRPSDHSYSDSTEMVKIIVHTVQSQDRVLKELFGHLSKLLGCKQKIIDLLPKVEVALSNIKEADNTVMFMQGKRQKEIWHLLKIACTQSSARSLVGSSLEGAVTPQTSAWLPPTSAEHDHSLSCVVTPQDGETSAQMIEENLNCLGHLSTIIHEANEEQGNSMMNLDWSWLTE
# [20] = target: KIT(D816H) (Homo sapiens, UniProt P10721, D816H)
# [21] = target: KIT(L576P) (Homo sapiens, UniProt P10721, L576P)
# [22] = target: LCK (Homo sapiens, UniProt P06239)
# [23] = target: LIMK2 (Homo sapiens, UniProt P53671)
# [24] = target: MARK4 (Homo sapiens, UniProt Q96L34)
# MARK4, sequence (Q96L34 whole entry): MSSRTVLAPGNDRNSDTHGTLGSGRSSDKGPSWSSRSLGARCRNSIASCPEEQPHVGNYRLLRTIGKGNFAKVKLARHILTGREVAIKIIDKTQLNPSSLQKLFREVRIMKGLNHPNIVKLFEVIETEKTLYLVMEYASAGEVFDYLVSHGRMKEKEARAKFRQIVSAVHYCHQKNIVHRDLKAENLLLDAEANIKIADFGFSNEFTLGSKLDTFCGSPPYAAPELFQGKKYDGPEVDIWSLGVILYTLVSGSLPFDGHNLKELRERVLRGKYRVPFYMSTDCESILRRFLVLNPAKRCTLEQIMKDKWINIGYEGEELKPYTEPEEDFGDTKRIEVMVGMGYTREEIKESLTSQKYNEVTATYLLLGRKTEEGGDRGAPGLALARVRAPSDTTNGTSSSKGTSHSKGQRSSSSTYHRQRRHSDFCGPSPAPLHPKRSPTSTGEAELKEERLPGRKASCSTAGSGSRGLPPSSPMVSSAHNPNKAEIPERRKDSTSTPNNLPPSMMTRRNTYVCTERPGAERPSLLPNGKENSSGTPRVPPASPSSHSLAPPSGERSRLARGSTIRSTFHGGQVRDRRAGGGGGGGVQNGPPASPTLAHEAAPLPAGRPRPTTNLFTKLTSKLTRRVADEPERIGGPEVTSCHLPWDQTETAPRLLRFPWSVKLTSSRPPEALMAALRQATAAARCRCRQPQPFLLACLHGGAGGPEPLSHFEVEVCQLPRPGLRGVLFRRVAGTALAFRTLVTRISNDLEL
# [25] = target: MAST1 (Homo sapiens, UniProt Q9Y2H9)
# [26] = target: MEK4 (Homo sapiens, UniProt P45985)
# [27] = target: MEK5 (Homo sapiens, UniProt Q13163)
# [28] = target: MET(Y1235D) (Homo sapiens, UniProt P08581, Y1235D)
# [29] = target: MKNK1 (Homo sapiens, UniProt Q9BUB5)
# MKNK1, sequence (Q9BUB5 whole entry): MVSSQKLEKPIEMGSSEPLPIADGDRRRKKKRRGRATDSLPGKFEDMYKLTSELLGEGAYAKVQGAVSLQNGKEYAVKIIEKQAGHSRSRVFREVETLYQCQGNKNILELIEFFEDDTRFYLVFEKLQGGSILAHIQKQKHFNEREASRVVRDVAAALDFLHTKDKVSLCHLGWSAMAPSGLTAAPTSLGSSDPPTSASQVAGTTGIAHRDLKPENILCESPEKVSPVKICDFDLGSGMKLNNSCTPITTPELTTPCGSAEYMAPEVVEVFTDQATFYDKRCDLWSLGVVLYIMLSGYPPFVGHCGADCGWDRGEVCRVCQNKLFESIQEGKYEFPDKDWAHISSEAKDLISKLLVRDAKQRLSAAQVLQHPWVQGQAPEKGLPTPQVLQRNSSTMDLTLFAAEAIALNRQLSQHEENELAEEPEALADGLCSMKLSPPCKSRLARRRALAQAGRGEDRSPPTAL
# [30] = target: MTOR (Homo sapiens, UniProt P42345)
# [31] = read-out: CPT-1-70-1 (1uM) % control
# [32] = read-out: HYJ-2-002-1 (1uM) % control
# AMPK-alpha1, sequence (Q13131 whole entry): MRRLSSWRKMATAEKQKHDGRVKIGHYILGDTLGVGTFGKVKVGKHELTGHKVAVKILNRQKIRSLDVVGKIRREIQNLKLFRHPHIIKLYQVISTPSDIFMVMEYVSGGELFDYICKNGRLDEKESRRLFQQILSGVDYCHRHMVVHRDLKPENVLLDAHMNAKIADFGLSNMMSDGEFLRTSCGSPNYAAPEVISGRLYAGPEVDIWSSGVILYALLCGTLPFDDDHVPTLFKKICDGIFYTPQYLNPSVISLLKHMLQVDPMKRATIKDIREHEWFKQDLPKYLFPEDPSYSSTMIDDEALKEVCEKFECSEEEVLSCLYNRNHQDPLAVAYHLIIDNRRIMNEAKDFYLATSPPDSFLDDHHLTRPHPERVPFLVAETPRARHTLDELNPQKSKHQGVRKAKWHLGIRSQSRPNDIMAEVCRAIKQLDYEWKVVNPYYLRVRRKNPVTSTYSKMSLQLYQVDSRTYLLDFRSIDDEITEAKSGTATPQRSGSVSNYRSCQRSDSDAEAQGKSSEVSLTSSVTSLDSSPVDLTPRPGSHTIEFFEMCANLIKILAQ
# AURKC, sequence (Q9UQB9 whole entry): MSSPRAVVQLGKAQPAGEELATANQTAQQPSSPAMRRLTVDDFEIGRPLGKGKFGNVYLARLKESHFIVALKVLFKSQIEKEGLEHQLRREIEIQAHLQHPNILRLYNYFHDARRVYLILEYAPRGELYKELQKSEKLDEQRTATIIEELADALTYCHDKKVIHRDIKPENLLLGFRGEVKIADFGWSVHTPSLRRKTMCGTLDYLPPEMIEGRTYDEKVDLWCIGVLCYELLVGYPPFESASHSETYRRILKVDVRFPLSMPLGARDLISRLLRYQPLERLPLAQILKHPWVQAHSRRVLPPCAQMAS
smiles,measurement,setting,value
CN1CCN(c2ccc(Nc3nc(Oc4ccc(NC(=O)CCl)cc4)c4cc[nH]c4n3)cc2)CC1 [CPT1-70-1],remaining activity at 1 µM,[1]; [31],100%
same,remaining activity at 1 µM,[2]; [31],32%
same,remaining activity at 1 µM,[3]; [31],37%
same,remaining activity at 1 µM,[4]; [31],51%
same,remaining activity at 1 µM,[5]; [31],100%
same,remaining activity at 1 µM,[6]; [31],100%
same,remaining activity at 1 µM,[7]; [31],26%
same,remaining activity at 1 µM,[8]; [31],55%
same,remaining activity at 1 µM,[9]; [31],18%
same,remaining activity at 1 µM,[10]; [31],35%
same,remaining activity at 1 µM,[11]; [31],59%
same,remaining activity at 1 µM,[12]; [31],41%
same,remaining activity at 1 µM,[13]; [31],100%
same,remaining activity at 1 µM,[14]; [31],34%
same,remaining activity at 1 µM,[15]; [31],69%
same,remaining activity at 1 µM,[16]; [31],73%
same,remaining activity at 1 µM,[17]; [31],85%
same,remaining activity at 1 µM,[18]; [31],62%
same,remaining activity at 1 µM,[19]; [31],85%
same,remaining activity at 1 µM,[20]; [31],83%
same,remaining activity at 1 µM,[21]; [31],8.9%
same,remaining activity at 1 µM,[22]; [31],32%
same,remaining activity at 1 µM,[23]; [31],100%
same,remaining activity at 1 µM,[24]; [31],1.8%
same,remaining activity at 1 µM,[25]; [31],100%
same,remaining activity at 1 µM,[26]; [31],35%
same,remaining activity at 1 µM,[27]; [31],18%
same,remaining activity at 1 µM,[28]; [31],23%
same,remaining activity at 1 µM,[29]; [31],100%
same,remaining activity at 1 µM,[30]; [31],66%
CCN1CCN(Cc2ccc(NC(=O)c3ccc(C)c(CCc4cnc5[nH]ccc5c4OC)c3)cc2C(F)(F)F)CC1 [HYJ-2-002-1],remaining activity at 1 µM,[1]; [32],95%
same,remaining activity at 1 µM,[2]; [32],87%
same,remaining activity at 1 µM,[3]; [32],100%
same,remaining activity at 1 µM,[4]; [32],80%
same,remaining activity at 1 µM,[5]; [32],88%
same,remaining activity at 1 µM,[6]; [32],100%
same,remaining activity at 1 µM,[7]; [32],6.7%
same,remaining activity at 1 µM,[8]; [32],100%
same,remaining activity at 1 µM,[9]; [32],75%
same,remaining activity at 1 µM,[10]; [32],94%
same,remaining activity at 1 µM,[11]; [32],100%
same,remaining activity at 1 µM,[12]; [32],100%
same,remaining activity at 1 µM,[13]; [32],96%
same,remaining activity at 1 µM,[14]; [32],1.8%
same,remaining activity at 1 µM,[15]; [32],100%
same,remaining activity at 1 µM,[16]; [32],13%
same,remaining activity at 1 µM,[17]; [32],0.55%
same,remaining activity at 1 µM,[18]; [32],100%
same,remaining activity at 1 µM,[19]; [32],0.2%
same,remaining activity at 1 µM,[20]; [32],43%
same,remaining activity at 1 µM,[21]; [32],82%
same,remaining activity at 1 µM,[22]; [32],1.1%
same,remaining activity at 1 µM,[23]; [32],32%
same,remaining activity at 1 µM,[24]; [32],94%
same,remaining activity at 1 µM,[25]; [32],99%
same,remaining activity at 1 µM,[26]; [32],100%
same,remaining activity at 1 µM,[27]; [32],0.85%
same,remaining activity at 1 µM,[28]; [32],83%
same,remaining activity at 1 µM,[29]; [32],84%
same,remaining activity at 1 µM,[30]; [32],93%
